Test results from patent US11147272B2, “Pyridone compounds and agricultural and horticultural fungicides comprising the same as active ingredients” (MITSUI CHEMICALS AGRO, INC., priority 2017, dated 2021).
Where two headings read alike, the source gives them in different places.

Assays:
Alternaia brassicicola = test: Test Example C: Alternaria sooty spot on cabbage; assay type: in vivo; details: for pest or weed control at 250 µg/mL: Brassica oleracea, topical
From the text: Seeds of a test plant (cabbage variety: Shikidori) were planted and cultivated until the cotyledons extended.
<Control Value> Control value=100{1−(n/3)}

[1] = system: Colletotrichum orbiculare; test: Test Example H: Anthracnose on cucumber; details: for pest or weed control at 250 ppm: Colletotrichum orbiculare, in Cucumis sativus, topical; for Test H control value: 6 to 10 days after inoculation; for Test H control value class: Anthracnose on cucumber (Sagami Hanjiro), 2.5 ml/pot, assessed 6 to 10 days after inoculation
[2] = system: Blumeria graminis f. sp. hordei; test: Test Example D: Powdery mildew on barley; details: for pest or weed control at 250 µg/mL: Blumeria graminis, in Hordeum vulgare, topical; for Test D control value class: class of control value
Botrytis cinerea = test: Test Example B: Gray mold on tomato; details: for pest or weed control at 250 µg/mL: Botrytis cinerea, in Solanum lycopersicum, topical; for Test B control value class: class of control value
Puccinia recondita = test: Test Example E: Brown rust on wheat; assay type: in vivo; details: for pest or weed control at 250 µg/mL: Puccinia recondita, topical
Phytophthora infestans = test: whole plant or invertebrate; assay type: in vivo; details: for pest or weed control at 250 µg/mL: Phytophthora infestans, in Solanum lycopersicum, topical; for Test F control value class: class of control value
Plasmopara viticola = test: Test Example G: Downy mildew on vine; details: for pest or weed control at 250 ppm: Plasmopara viticola, topical; for Test G control value: 7 to 10 days after inoculation; for Test G control value class: Downy mildew on vine (Neomuscat), 2.5 ml/pot, assessed 7 to 10 days after inoculation
Magnaporthe grisea = test: whole plant or invertebrate; assay type: in vivo; details: for pest or weed control at 250 µg/mL: Pyricularia oryzae, in Oryza sativa; for Test A control value class: class of control value
[3] = Alternaria sooty spot on cabbage, class of control value, read-out: Test C control value class
[4] = read-out: Test H control value class
[5] = read-out: Test D control value class
[6] = read-out: Test B control value class
[7] = Brown rust on wheat, class of control value, read-out: Test E control value class
[8] = read-out: Test F control value class
[9] = read-out: Test G control value class
[10] = read-out: Test A control value class
[11] = Alternaria sooty spot on cabbage, control value class
[12] = Anthracnose on cucumber, 250 ppm spray
[13] = Powdery mildew on barley, control value class
[14] = Gray mold on tomato, control value class
[15] = Brown rust on wheat, control value class
[16] = Late blight on tomato, control value class
[17] = Downy mildew on vine, 250 ppm spray
[18] = Blast on rice, control value class
[19] = 250 ppm drug solution sprayed on test plant
[20] = Alternaria sooty spot on cabbage, class of control value
[21] = Brown rust on wheat, class of control value

CCn1c(-c2c(F)cccc2F)c(C)ccc1=O [Compound No. 1, 6-(2,6-difluorophenyl)-1-ethyl-5-methylpyridin-2(1H)-one]
pest or weed control at 250 µg/mL (Alternaia brassicicola; [3]): < 50% | pest or weed control at 250 ppm [1, 4]: < 50% | pest or weed control at 250 µg/mL [2, 5]: < 50% | pest or weed control at 250 µg/mL (Botrytis cinerea; [6]): < 50% | pest or weed control at 250 µg/mL (Puccinia recondita; [7]): < 50% | pest or weed control at 250 µg/mL (Phytophthora infestans; [8]): < 50% | pest or weed control at 250 ppm (Plasmopara viticola; [9]): < 50% | pest or weed control at 250 µg/mL (Magnaporthe grisea; [10]): > 50%

CCn1c(-c2ccccc2Cl)c(CC(C)C)ccc1=O [compound 262]
Test C control value (Alternaia brassicicola; [11]): H (more than 50% control value) | Test H control value [1, 12]: H (more than 50% control value) | Test D control value [2, 13]: H (more than 50% control value) | Test B control value (Botrytis cinerea; [14]): H (more than 50% control value) | Test E control value (Puccinia recondita; [15]): H (more than 50% control value) | Test F control value (Phytophthora infestans; [16]): L (50% or less control value) | Test G control value (Plasmopara viticola; [17]): L (50% or less control value) | Test A control value (Magnaporthe grisea; [18]): L (50% or less control value)

CCCc1cc(I)c(=O)n(CCC)c1-c1c(F)cc(OC)cc1F [compound 445]
Test C control value (Alternaia brassicicola; [19]): H (more than 50% control value) | Test H control value ([1]; 250 ppm drug solution sprayed (2.5 ml/pot), cucumber Sagami Hanjiro): H (more than 50% control value) | Test D control value [2, 19]: L (50% or less control value) | Test B control value (Botrytis cinerea; [19]): H (more than 50% control value) | Test E control value (Puccinia recondita; [19]): H (more than 50% control value) | Test F control value (Phytophthora infestans; [19]): L (50% or less control value) | Test G control value (Plasmopara viticola; 250 ppm drug solution sprayed (2.5 ml/pot), grape Neomuscat): L (50% or less control value) | Test A control value (Magnaporthe grisea; [19]): L (50% or less control value)

CCn1c(-c2c(F)cc(F)cc2F)c(C(C)C)ccc1=O [Compound No. 7, 1-ethyl-5-isopropyl-6-(2,4,6-trifluorophenyl)pyridin-2(1H)-one]
pest or weed control at 250 µg/mL (Alternaia brassicicola; [3]): > 50% | pest or weed control at 250 ppm [1, 4]: > 50% | pest or weed control at 250 µg/mL [2, 5]: > 50% | pest or weed control at 250 µg/mL (Botrytis cinerea; [6]): > 50% | pest or weed control at 250 µg/mL (Puccinia recondita; [7]): > 50% | pest or weed control at 250 µg/mL (Phytophthora infestans; [8]): < 50% | pest or weed control at 250 ppm (Plasmopara viticola; [9]): > 50% | pest or weed control at 250 µg/mL (Magnaporthe grisea; [10]): > 50%

CCCC1=C(c2ccc(F)cc2Cl)N(CC)C(=S)CC1 [compound 315]
Test C control value (Alternaia brassicicola; [11]): L (50% or less control value) | Test H control value [1, 12]: L (50% or less control value) | Test D control value [2, 13]: H (more than 50% control value) | Test B control value (Botrytis cinerea; [14]): L (50% or less control value) | Test E control value (Puccinia recondita; [15]): L (50% or less control value) | Test F control value (Phytophthora infestans; [16]): L (50% or less control value) | Test G control value (Plasmopara viticola; [17]): L (50% or less control value) | Test A control value (Magnaporthe grisea; [18]): L (50% or less control value)

CCn1c(-c2c(F)cc(OC)cc2F)c(COC(C)C)cc(Cl)c1=O [compound 60]
Test C control value class (Alternaia brassicicola; [20]): H (more than 50% control value) | Test H control value class ([1]; 250 ppm spray): H (more than 50% control value) | Test D control value class ([2]; Powdery mildew on barley): H (more than 50% control value) | Test B control value class (Botrytis cinerea; Gray mold on tomato): H (more than 50% control value) | Test E control value class (Puccinia recondita; [21]): H (more than 50% control value) | Test F control value class (Phytophthora infestans; Late blight on tomato): L (50% or less control value) | Test G control value class (Plasmopara viticola; 250 ppm spray): H (more than 50% control value) | Test A control value class (Magnaporthe grisea; Blast on rice): H (more than 50% control value)

CCn1c(-c2c(F)cc(F)cc2F)c(COc2ccc(Cl)cc2)cc(Cl)c1=O [compound 311]
Test C control value (Alternaia brassicicola; [11]): L (50% or less control value) | Test H control value [1, 12]: L (50% or less control value) | Test D control value [2, 13]: L (50% or less control value) | Test B control value (Botrytis cinerea; [14]): L (50% or less control value) | Test E control value (Puccinia recondita; [15]): H (more than 50% control value) | Test F control value (Phytophthora infestans; [16]): L (50% or less control value) | Test G control value (Plasmopara viticola; [17]): L (50% or less control value) | Test A control value (Magnaporthe grisea; [18]): L (50% or less control value)

CCCc1cc(Br)c(=O)n(C)c1-c1ccc(F)cc1Cl [Compound No. 333, 3-bromo-6-(2-chloro-4-fluorophenyl)-1-methyl-5-propylpyridin-2(1H)-one]
pest or weed control at 250 µg/mL (Alternaia brassicicola; Alternaria sooty spot on cabbage, control value class, read-out: Test C control value): > 50% | pest or weed control at 250 ppm ([1]; 144 h, read-out: Test H control value): > 50% | pest or weed control at 250 µg/mL ([2]; read-out: Test D control value): < 50% | pest or weed control at 250 µg/mL (Botrytis cinerea; read-out: Test B control value): > 50% | pest or weed control at 250 µg/mL (Puccinia recondita; Brown rust on wheat, control value class, read-out: Test E control value): > 50% | pest or weed control at 250 µg/mL (Phytophthora infestans; read-out: Test F control value): < 50% | pest or weed control at 250 ppm (Plasmopara viticola; 168 h, read-out: Test G control value): < 50% | pest or weed control at 250 µg/mL (Magnaporthe grisea; read-out: Test A control value): > 50%

CCn1c(-c2c(F)cccc2F)c(C(C)(O)CC)cc(Cl)c1=O (centres unmarked) [Compound No. 27, 3-chloro-6-(2,6-difluorophenyl)-1-ethyl-5-(2-hydroxybutan-2-yl)pyridin-2(1H)-one]
pest or weed control at 250 µg/mL (Alternaia brassicicola; [3]): > 50% | pest or weed control at 250 ppm [1, 4]: > 50% | pest or weed control at 250 µg/mL [2, 5]: > 50% | pest or weed control at 250 µg/mL (Botrytis cinerea; [6]): > 50% | pest or weed control at 250 µg/mL (Puccinia recondita; [7]): > 50% | pest or weed control at 250 µg/mL (Phytophthora infestans; [8]): < 50% | pest or weed control at 250 ppm (Plasmopara viticola; [9]): > 50% | pest or weed control at 250 µg/mL (Magnaporthe grisea; [10]): > 50%

CCOc1cc(F)c(-c2c(C(C)(O)C(C)C)cc(Cl)c(=O)n2CC)c(F)c1 (centres unmarked) [compound 226]
Test C control value (Alternaia brassicicola; [11]): H (more than 50% control value) | Test H control value [1, 12]: H (more than 50% control value) | Test D control value [2, 13]: L (50% or less control value) | Test B control value (Botrytis cinerea; [14]): H (more than 50% control value) | Test E control value (Puccinia recondita; [15]): H (more than 50% control value) | Test F control value (Phytophthora infestans; [16]): L (50% or less control value) | Test G control value (Plasmopara viticola; [17]): L (50% or less control value) | Test A control value (Magnaporthe grisea; [18]): H (more than 50% control value)

CCn1c(-c2ccc(F)cc2Cl)c(C2CCCC2)ccc1=O [compound 219]
Test C control value (Alternaia brassicicola; [11]): H (more than 50% control value) | Test H control value [1, 12]: L (50% or less control value) | Test D control value [2, 13]: H (more than 50% control value) | Test B control value (Botrytis cinerea; [14]): H (more than 50% control value) | Test E control value (Puccinia recondita; [15]): H (more than 50% control value) | Test F control value (Phytophthora infestans; [16]): L (50% or less control value) | Test G control value (Plasmopara viticola; [17]): L (50% or less control value) | Test A control value (Magnaporthe grisea; [18]): H (more than 50% control value)

CCn1c(-c2c(F)cc(F)cc2F)c(C(C)(F)CC)cc(Cl)c1=O (centres unmarked) [compound 56]
Test C control value class (Alternaia brassicicola; [20]): H (more than 50% control value) | Test H control value class ([1]; 250 ppm spray): H (more than 50% control value) | Test D control value class ([2]; Powdery mildew on barley): H (more than 50% control value) | Test B control value class (Botrytis cinerea; Gray mold on tomato): H (more than 50% control value) | Test E control value class (Puccinia recondita; [21]): H (more than 50% control value) | Test F control value class (Phytophthora infestans; Late blight on tomato): L (50% or less control value) | Test G control value class (Plasmopara viticola; 250 ppm spray): H (more than 50% control value) | Test A control value class (Magnaporthe grisea; Blast on rice): H (more than 50% control value)

CC(C)Cc1ccc(=O)n(C)c1-c1ccc(Cl)cc1Cl [compound 134]
Test C control value class (Alternaia brassicicola; [20]): L (50% or less control value) | Test H control value class ([1]; 250 ppm spray): L (50% or less control value) | Test D control value class ([2]; Powdery mildew on barley): H (more than 50% control value) | Test B control value class (Botrytis cinerea; Gray mold on tomato): H (more than 50% control value) | Test E control value class (Puccinia recondita; [21]): H (more than 50% control value) | Test F control value class (Phytophthora infestans; Late blight on tomato): L (50% or less control value) | Test G control value class (Plasmopara viticola; 250 ppm spray): H (more than 50% control value) | Test A control value class (Magnaporthe grisea; Blast on rice): H (more than 50% control value)
